PubChem BioAssay (NCI)
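Cultured in 96-well plates, cells were exposed to test compound for 48 hours across five concentrations. At the GI50, growth is halved. TGI denotes the concentration required for complete inhibition of growth.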

How the values were obtained:
Test in all cases: NCI tumour cell line growth inhibition, 48 h
COLO 205 colon = tested on: COLO 205 colon
HT29 colon = tested on: HT29 colon
MDA-MB-231 breast = tested on: MDA-MB-231 breast
NCI-H226 lung = tested on: NCI-H226 lung
OVCAR-8 ovarian = tested on: OVCAR-8 ovarian
SK-MEL-5 melanoma = tested on: SK-MEL-5 melanoma
UACC-62 melanoma = tested on: UACC-62 melanoma
UO-31 renal = tested on: UO-31 renal

Row | Compound | TGI (COLO 205 colon) [µM] | TGI (HT29 colon) [µM] | TGI (MDA-MB-231 breast) [µM] | TGI (NCI-H226 lung) [µM] | TGI (OVCAR-8 ovarian) [µM] | TGI (SK-MEL-5 melanoma) [µM] | TGI (UACC-62 melanoma) [µM] | TGI (UO-31 renal) [µM] | GI50 (COLO 205 colon) [µM] | GI50 (HT29 colon) [µM] | GI50 (MDA-MB-231 breast) [µM] | GI50 (NCI-H226 lung) [µM] | GI50 (OVCAR-8 ovarian) [µM] | GI50 (SK-MEL-5 melanoma) [µM] | GI50 (UACC-62 melanoma) [µM] | GI50 (UO-31 renal) [µM]
1 | C=C(C)C1Cc2cc(C(C)=O)ccc2O1 (stereo unspecified) | > 100 | > 100 | > 100 | > 100 | > 100 | > 100 | > 100 | > 100 |  |  |  |  |  |  |  | 
2 | CC(=O)OCCC/C(=C/c1cc2ccccc2c2ccccc12)[N+](=O)[O-] | 3.03 | 3.72 | 4.3 | 5.63 | 3.21 | 2.96 | 3.1 | 2.3 | 1.67 | 1.97 | 1.78 | 2.04 | 1.61 | 1.61 | 1.54 | 1.09
3 | CCSc1nc(N)c(C#N)c(-c2ccc(OC)c(OC)c2)c1C#N | > 50 |  | 48.9 |  | 45.1 | 29.5 | 45.2 | > 50 | 17.5 |  | 11.7 |  | 15.5 | 8.36 | 8.65 | 15.9
4 | Nc1n[nH]c2cc(F)c([C@@H]3Nc4c(F)cc5[nH]ncc5c4[C@H]4C5CCC(C5)[C@@H]34)cc12 (stereo partly specified) | 1.03 | 5.39 | 5.05 | 1.41 | 15.2 | 0.538 | 6.77 | 10.8 | 0.124 | 0.119 | 0.135 | 0.141 | 0.136 | 0.114 | 0.162 | 0.209
5 | COc1ccc(OC)c(-c2nc3sc(C)cn3c2/C=C2\C(=O)N(C)c3ccccc32)c1 | 68 | 70 | 66.3 | > 100 | > 100 | 27.3 | 31.1 | 59.7 | 25.8 | 21.9 | 15.3 | 29.8 | 28.3 | 14 | 13.4 | 21.1
6 | COC(=O)C[C@@H]1CC=CC(=O)/C1=C(O)/C=C/c1ccccc1 | 1.46 | 0.774 | 4.22 | 7.55 | 3.76 | 2.79 | 3.98 | 0.826 | 0.401 | 0.268 | 1.46 | 2.05 | 0.602 | 1.41 | 1.42 | 0.303
7 | Cc1cc(O)cc(-c2nn(C)cc2-c2cc(N3CCOCC3)nc(-c3cccnc3)n2)c1 | 9.57 | 21.9 | 38 | 20.5 | > 100 | 6.89 | 18.7 | 43.3 | 2.9 | 3.39 | 5.82 | 4.83 | 7.11 | 1.76 | 1.9 | 3.44
8 | COc1ccc2cn3c4ccc(O)cc4[nH]c(=O)c3c2c1 | 2.87 | 2.85 | 14.8 | 22.3 | 18.1 | 3.45 | 18.1 | 15.1 | 0.348 | 0.273 | 0.434 | 0.313 | 0.302 | 0.0257 | 0.58 | 0.456
9 | CC(NNC(=S)N1CCN(c2ccccn2)CC1)c1cccc[n+]1[O-] (stereo unspecified) | > 100 | > 100 | > 100 | > 100 | > 100 | 34.8 | 22.8 | 82.3 |  |  |  |  |  |  |  | 
10 | COc1ccc2c(ccc3oc([N+](=O)[O-])cc32)c1 | 0.389 | 0.874 | 0.596 | 0.629 | 1.2 | 0.142 | 0.333 | 0.763 | 0.172 | 0.202 | 0.167 | 0.193 | 0.18 | 0.0413 | 0.158 | 0.224
11 | Cc1nc2sc(C(=O)Nc3cccc(Cl)c3C)c(N)c2cc1C(O)c1ccccc1 (stereo unspecified) | 1.37 | 8.35 | 6.95 | 22.8 | 35.3 | 1.11 | 12 | 12.6 | 0.0667 | 0.0355 | 0.0834 | 1.19 | 0.0512 | 0.0528 | 0.087 | 0.0985
12 | CCCCc1n(Cc2ccc3ccccc3n2)cc[n+]1Cc1ccc2ccccc2c1 | 1.79 | 2.85 | 2.04 | 6.12 | 3.17 | 1.33 | 1.86 | 13.6 | 0.502 | 0.592 | 0.635 | 1 | 1.03 | 0.559 | 0.579 | 3.22
13 | COc1ccc(/C=N/C2=NNC(C)(c3ccccc3O)N2C(Cc2c[nH]c3ccccc23)C(=O)O)cc1 (stereo unspecified) | 4.44 | 9.51 | 8.89 | 10.3 | 16 | 3.09 | 5.53 | 11.2 | 1.86 | 2.36 | 1.89 | 2.16 | 3.23 | 1.66 | 1.86 | 1.62
14 | COC(=O)[C@]12CC[C@@H](C)[C@H](C)[C@@H]1C1=CC[C@@H]3[C@@]4(C)C(C=O)=C[C@@](C)(COC(=O)c5ccco5)C4=CC[C@@]3(C)[C@]1(C)CC2 | 0.0614 | 9.47 | 9.47 | 7.79 | 15.9 | 1.17 | 2.24 | 5.03 | 0.0247 | 2.98 | 2.73 | 2.33 | 3.67 | 0.189 | 0.0831 | 1.92
15 | Cc1ccc(Nn2c(SCC(=O)Nc3nc(-c4ccccc4)cs3)nc(C)c2C)cc1 | 34.4 | 28.2 | > 100 |  | > 100 | 5.72 | > 100 | > 100 | 3.98 | 4.37 | 3.34 |  | 3.79 | 2 | 3.15 | 2.89
16 | Cn1c(=O)c2[nH]c(CCS)nc2n(C)c1=O | > 100 | > 100 | > 100 | > 100 | > 100 | > 100 | > 100 | > 100 |  |  |  |  |  |  |  | 
